Source: ChEMBL document CHEMBL1268832, “Discovery of a potent tubulin polymerization inhibitor: synthesis and evaluation of water-soluble prodrugs of benzophenone analog” (Bioorg Med Chem Lett, 2010)
Converted amounts (≈) assume the structure as drawn. The source made the active and inactive calls. The calls are words filed in the database; no cut-off is given here.

Legend:
CX-1 [1] = assay: Antitumor activity against human CX-1 cells xenografted in mouse assessed as tumor growth inhibition at 10 mg/kg, ip for every 4 days 4 doses; type: functional; design: scale not given: the % may be the effect or the level left; settings: route intraperitoneal
HL-60 = assay: Antiproliferative activity against human HL60 cells after 72 hrs by MTT assay; type: functional, cell-based; settings: HL-60, 72 h
Mus musculus [2] = assay: Toxicity in human CX-1 cells xenografted in mouse assessed as chage in body weight at 5 mg/kg, ip for every 4 days 4 doses (Rbv = 24.5%); type: organism-based; design: dose 5 mg/kg, route intraperitoneal; settings: in vivo, 96 h
CX-1 [3] = assay: Antitumor activity against human CX-1 cells xenografted in mouse assessed as mouse survival at 5 mg/kg, ip for every 4 days 4 doses; type: functional, organism-based; design: dose 5 mg/kg
CX-1 [4] = assay: Antitumor activity against human CX-1 cells xenografted in mouse assessed as mouse survival at 10 mg/kg, ip for every 4 days 4 doses; type: functional, organism-based; design: dose 10 mg/kg
Mus musculus [5] = assay: Toxicity in human CX-1 cells xenografted in mouse assessed as chage in body weight at 10 mg/kg, ip for every 4 days 4 doses (Rbv = 24.5%); type: organism-based; design: dose 10 mg/kg, route intraperitoneal; settings: in vivo, 96 h
CX-1 [6] = assay: Antitumor activity against human CX-1 cells xenografted in mouse assessed as tumor growth inhibition at 5 mg/kg, ip for every 4 days 4 doses; type: functional; design: scale not given: the % may be the effect or the level left; settings: route intraperitoneal
MDA-MB-231 = assay: Antiproliferative activity against P-gp expressing multidrug-resistant human MDA-MB-231 cells after 72 hrs by MTT assay; type: functional, cell-based; settings: MDA-MB-231, 72 h
HCT-116 [7] = assay: Antitumor activity against human HCT116 cells xenografted in mouse assessed as mouse survival at 5 mg/kg, ip for every 4 days 4 doses; type: functional, organism-based; design: dose 5 mg/kg
Mus musculus [8] = assay: Toxicity in human HCT116 cells xenografted in mouse assessed as chage in body weight at 5 mg/kg, ip for every 4 days 4 doses (Rbv = -5.7%); type: organism-based, HCT-116; design: dose 5 mg/kg, route intraperitoneal; settings: in vivo, 96 h
HCT-116 [9] = assay: Antitumor activity against human HCT116 cells xenografted in mouse assessed as tumor growth inhibition at 5 mg/kg, ip for every 4 days 4 doses; type: functional; design: scale not given: the % may be the effect or the level left; settings: route intraperitoneal
Mus musculus [10] = assay: Toxicity in human HCT116 cells xenografted in mouse assessed as chage in body weight at 10 mg/kg, ip for every 4 days 4 doses (Rbv = -5.7%); type: organism-based, HCT-116; design: dose 10 mg/kg, route intraperitoneal; settings: in vivo, 96 h
[11] = Metabolic stability in human liver microsomes assessed as compound remaining at 5 uM after 1 hr; type: ADME, Microsome; settings: read-out: Stability
[12] = Aqueous solubility of the compound in deionized water; type: physicochemical
[13] = Half life in Sprague-Dawley rat at 10 mg/kg, iv; type: ADME, organism-based; design: dose 10 mg/kg, route intravenous; settings: in vivo
[14] = Metabolic stability in dog liver microsomes assessed as compound remaining at 5 uM after 1 hr; type: ADME, Canis lupus familiaris, Microsome; settings: read-out: Stability
HCT-116 [15] = assay: Antitumor activity against human HCT116 cells xenografted in mouse assessed as mouse survival at 10 mg/kg, ip for every 4 days 4 doses; type: functional, organism-based; design: dose 10 mg/kg
HCT-116 [16] = assay: Antitumor activity against human HCT116 cells xenografted in mouse assessed as tumor growth inhibition at 10 mg/kg, ip for every 4 days 4 doses; type: functional; design: scale not given: the % may be the effect or the level left; settings: route intraperitoneal

Structure (SMILES): COc1cc(C(=O)c2ccc(-c3csc(NC(=O)[C@@H](N)Cc4ccccc4)n3)cc2-n2cncn2)cc(OC)c1OC
- Activity (CX-1 [1]): 43%
- IC50 (HL-60): 89 nM
- Activity (Mus musculus [2]): 28.9%
- Activity (CX-1 [3]): Active
- Activity (CX-1 [4]): Active
- Activity (Mus musculus [5]): 24.5%
- Activity (CX-1 [6]): 21%

Structure (SMILES): COc1cc(C(=O)c2ccc(-c3csc(NC(=O)[C@@H](N)CC4CCCCC4)n3)cc2-n2cncn2)cc(OC)c1OC
- IC50 (HL-60): 86 nM

Structure (SMILES): COc1ccc(/C=C\c2cc(OC)c(OC)c(OC)c2)cc1N
- IC50 (MDA-MB-231): 45 nM

Structure (SMILES): COc1cc(C(=O)c2ccc(-c3csc(NC(=O)[C@H](C)N)n3)cc2-n2cncn2)cc(OC)c1OC
- IC50 (HL-60): 13 nM
- Activity (HCT-116 [7]): Active
- Activity (Mus musculus [8]): -1.7%
- Activity (HCT-116 [9]): 62%

Structure (SMILES): COc1cc(C(=O)c2ccc(-c3csc(NC(=O)[C@H](N)Cc4ccc(Cl)cc4)n3)cc2-n2cncn2)cc(OC)c1OC
- IC50 (HL-60): 920 nM

Structure (SMILES): COc1cc(C(=O)c2ccc(-c3csc(NC(=O)[C@@H](N)CC(C)C)n3)cc2-n2cncn2)cc(OC)c1OC
- IC50 (HL-60): 76 nM

Structure (SMILES): COc1cc(C(=O)c2ccc(-c3csc(NC(=O)[C@H](N)Cc4ccc(F)cc4)n3)cc2-n2cncn2)cc(OC)c1OC
- IC50 (HL-60): 740 nM

Structure (SMILES): COc1cc(C(=O)c2ccc(-c3csc(NC(=O)[C@@H](N)CO)n3)cc2-n2cncn2)cc(OC)c1OC
- IC50 (HL-60): 81 nM

Structure (SMILES): COc1cc(C(=O)c2ccc(-c3csc(NC(=O)[C@H](N)c4ccccc4)n3)cc2-n2cncn2)cc(OC)c1OC
- IC50 (HL-60): 280 nM

Structure (SMILES): COc1cc(C(=O)c2ccc(-c3csc(NC(=O)CN)n3)cc2-n2cncn2)cc(OC)c1OC
- Activity (CX-1 [1]): 44%
- IC50 (HL-60): 27 nM
- Activity (Mus musculus [2]): 22.2%
- Activity (CX-1 [3]): Active
- Activity (Mus musculus [5]): 21%
- Activity (CX-1 [6]): 40%

Structure (SMILES): COc1cc(C(=O)c2ccc(-c3csc(NC(=O)[C@@H]4CCCN4)n3)cc2-n2cncn2)cc(OC)c1OC
- IC50 (HL-60): 98 nM

Structure (SMILES): COc1cc(C(=O)c2ccc(-c3csc(NC(=O)C(C)(C)N)n3)cc2-n2cncn2)cc(OC)c1OC
- Activity (CX-1 [1]): 20%
- IC50 (HL-60): 5 nM
- Activity (Mus musculus [2]): 24.8%
- Activity (CX-1 [3]): Active
- Activity (CX-1 [4]): Active
- Activity (Mus musculus [5]): 26.7%
- Activity (CX-1 [6]): 23%

Structure (SMILES): COc1cc(C(=O)c2ccc(-c3csc(NC(=O)[C@@H](N)C(C)C)n3)cc2-n2cncn2)cc(OC)c1OC
- Activity (Mus musculus [10]): 5.1%
- remaining at 1 h, 5 µM [11]: 15%
- solubility [12]: 930 µg/mL (≈ 1730 µM)
- Activity (CX-1 [1]): 64%
- IC50 (HL-60): 110 nM
- Activity (Mus musculus [2]): 25.7%
- half-life [13]: 0.41 min
- Activity (CX-1 [3]): Active
- Activity (CX-1 [4]): Active
- remaining at 1 h, 5 µM [14]: 10%
- Activity (HCT-116 [15]): Active
- Activity (Mus musculus [5]): 14.7%
- Activity (CX-1 [6]): 28%
- Activity (HCT-116 [16]): 88%

Structure (SMILES): COc1cc(C(=O)c2ccc(-c3csc(NC(=O)[C@H](N)Cc4ccc(C(F)(F)F)cc4)n3)cc2-n2cncn2)cc(OC)c1OC
- IC50 (HL-60): > 2000 nM

Structure (SMILES): COc1cc(C(=O)c2ccc(-c3csc(N)n3)cc2-n2cncn2)cc(OC)c1OC
- remaining at 1 h, 5 µM [11]: 60%
- solubility [12]: < 100 µg/mL
- IC50 (MDA-MB-231): 9.8 nM
- half-life [13]: 1.65 min
- remaining at 1 h, 5 µM [14]: 60%
